Columns and labels:
Wistar Kyoto rats [1] = experiment: Test 1: NMDA-antagonist induced locomotion; type: in vivo; details: rat
Description: Test 1: NMDA-Antagonist Induced Locomotion:
Male Wistar Kyoto rats (Iffa Crédo, Lyon, France) weighing between 250 and 310 g are used. In principle 4 treatment groups are formed: 1) the compound (doses 1, 3 or 10 mg/kg) followed by the competitive NMDA receptor antagonist (S)-2-amino-3-(2′-chloro-5-phosphonomethyl-biphenyl-3-yl)-propionic acid, hereinafter SDZ 220-581 (10 mg/kg), 2) solvent-pretreatment followed by SDZ 220-581 (10 mg/kg), 3) solvent followed by solvent, 4) the compound (1, 3, 10 mg/kg) followed by solvent. Rats are randomly allocated to these pretreatment groups (n=10/dose group). Drugs are administered subcutaneous (s.c.), 15 min prior to SDZ 220-581. Immediately after the animals received SDZ 220-581, they are placed into the activity monitor for a period of 60 min. Locomotor activity is analysed over the initial 30 minutes.
Locomotion is recorded with a videotracking system (VideoMot2, TSE Technical and Scientific Equipment GmbH, Bad Hombourg, Germany), using a closed circuit digital videocamera (WV-BP.330/GE, Panasonic, Osaka, Japan). The video-signal from the camera is digitized and used for data analysis. Animals are on a normal 12/12 h day-night cycle, with light on at 06:00H. Experiments are performed in a dimly lit room between 07:00 H and 15:00H. […] The camera is placed such, that four animals (one per arena) can be recorded simultaneously.

Wistar rats = experiment: model of neuropathic pain in the rat (partial sciatic nerve ligation, mechanical hyperalgesia); type: in vivo; details: 10 mg/kg p.o., after 3 hours
From the text: The activity of the compounds in the treatment of neuropathic pain is evidenced, for example, in the following model of neuropathic pain in the rat:
Wistar rats are anaesthetised with enflurane and a small incision is made mid-way up one thigh to expose the sciatic nerve. The nerve is cleared of connective tissue and a 7-0 silk suture is inserted into the nerve using a ⅜ curved reverse-cutting min-needle, and tightly ligated so that the dorsal ⅓ to ½ of the nerve thickness is held within the ligature. The muscle and skin are closed with sutures and clips and the wound dusted with antibiotic powder. […] Mechanical hyperalgesia is assessed by measuring paw withdrawal thresholds on both the ipsilateral (ligated) and contralateral (unligated) hindpaw to an increasing pressure stimulus applied to the paw using an analgesymeter (Ugo-Basile) with a wedge-shaped probe (area 1.75 mm^2) and a cut-off threshold of 250 g. […] Reversal of established hyperalgesia by administered compounds is measured 12-14 days following surgery, using 6 animals per treatment group. Paw withdrawal thresholds are measured prior to and then up to 6 hours following drug or vehicle administration. Statistical analysis is carried out on withdrawal threshold readings using ANOVA followed by Tukey's HSD test comparing drug treated and time-matched vehicle treated animals.

[2] = system: patients with diabetic neuropathy; experiment: clinical study of chronic pain in patients with diabetic neuropathy; type: in vivo, human; details: 2400 mg/day, Maintenance and Follow-up Periods, statistically significant
Description: The activity of the compounds of formula I in the treatment of neuropathic pain can be confirmed in clinical trials, for example in the following study aimed at evaluating the efficacy of a compound in treating chronic pain in patients with diabetic neuropathy:
Patients are randomized to receive 2400 mg/day of the compound or placebo in a 1:1 ratio.
The study consists of a Pre-randomization Phase (1 week) and a Double-blind Phase (5 weeks). The double-blind Phase consists of three periods: a one week Titration Period, a three-week Maintenance Period and a one-week Follow-up Period.
During the 1-week Pre-randomization Phase, the eligibility of the patients is evaluated. Patents meeting all inclusion/exclusion criteria are randomized to either the compound or placebo in the Double-blind Phase. […]
The SF-MPQ total pain score at the end of the Maintenance Period is analyzed using an analysis of covariance model adjusting for the effect of treatment on post-treatment scores by using the baseline SF-MPQ total pain score as a covariate. Average weekly pain severity is analyzed using an analysis of covariance model with repeated measures using the treatment week and the mean pain severity rating during the Pre-randomization Phase as covariates. Usage of rescue medication during the Double-blind Phase is analyzed using the Cochran-Mantel-Haenszel test controlling for center. […]

neurons = details: superfusion, in vitro
From the text: The activity in tinnitus of the compounds is indicated in standard tests, e.g. in the salicylate-induced tinnitus model.

auditory neurons = experiment: extracellular electrophysiological recording of auditory neuron firing rate
Wistar Kyoto rats [3] = experiment: Test 2: NMDA-channel blocker induced head swaying and circling; type: in vivo; details: rat, 10 mg/kg s.c., 0-30 min
Description: Test 2: NMDA-Channel Blocker Induced Head Swaying and Circling:
Adult male Wistar Kyoto rats (340-380 g; Iffa Credo, Lyon, France) are used. The animals are randomized to the following treatment groups (n=10 per group): the compound (dosed 0, 3 or 10 mg/kg) followed by phencyclidine (PCP; an NMDA channel blocker, dosed 0 or 10 mg/kg). Compound (at t=−15 min) and PCP (at t=0 min) are administered s.c. in a volume of 1 ml/kg. Video-recordings of the animals behaviour over the period 0-30 min following PCP are scored by an observer who is unaware about the animals pretreatment. Head-swaying (rocking the head repeatedly by at least 2 cm left and right) and circling (turning around by using the forepaws, whereas the hindpaws remain more or less on the original position) are scored as present (1) or absent (0), every five minutes for the duruation of 1 minute. The scores for individual animals is summed and group scores used for statistical analysis (t-test with Bonferroni correction).

Structure (SMILES): N[C@@H](Cc1cc(CP(=O)(O)O)cc(-c2ccccc2Cl)c1)C(=O)O [SDZ 220-581, (S)-2-amino-3-(2′-chloro-5-phosphonomethyl-biphenyl-3-yl)-propionic acid]
- distance walked during 30 min (Wistar Kyoto rats [1]; 10 mg/kg s.c., control animals approximately 8-10 m): approximately 30 m

Structure (SMILES): O=c1[nH]c2cc([N+](=O)[O-])cc(CNCP(=O)(O)O)c2[nH]c1=O [{[(7-nitro-2,3-dioxo-1,2,3,4-tetrahydro-quinoxalin-5-ylmethyl)-amino]-methyl}-phosphonic acid]
- maximal reversal of neuropathic mechanical hyperalgesia (Wistar rats): 35%
- pain severity ratings relative to placebo [2]: decrease pain severity ratings relative to placebo
- effect of the NMDA-antagonist SDZ 220-581 on locomotion after pretreatment (Wistar Kyoto rats [1]; compound 10 mg/kg s.c., SDZ 220-581 10 mg/kg s.c.): almost normalized

Structure (SMILES): O=C(O)c1ccccc1O [salicylate]
- excitability of the recorded neurons (neurons): increases the excitability
- firing rate of auditory neurons (auditory neurons): increase in the firing rate

Structure (SMILES): C=C[C@H]1C[N@@]2CC[C@H]1C[C@H]2[C@H](O)c1ccnc2ccc(OC)cc12 [quinine]
- firing rate of auditory neurons (auditory neurons): increase in the firing rate

Structure (SMILES): c1ccc(C2(N3CCCCC3)CCCCC2)cc1 [PCP, phencyclidine]
- head-swaying and circling induced (Wistar Kyoto rats [3]): weak head-swaying and circling
